# Data taken from patent publication US20260355171A1, “INHIBITORS AND USES THEREFOR” (priority 2022, published 2026).
# “And” between values parts separate entries of the source, which are not always exact repeats. Identical values can stand only once. Like-named read-outs stand apart in the source and are kept apart here.
# Key:
# [1] = tested on: primary neurons expressing SARS-CoV-2 NSP5 (AAV9-NSP5-V5); test: Effect on neurons in the presence of NSP5 (AAV9-NSP5-V5, immunofluorescence); assay type: cell-based, mouse; conditions: 0.4, 2, 10 or 50 μM, two days
# [2] = Tissue (brain/lung) exposure, IP administration; assay type: in vivo, mouse; conditions: for Unbound Brain Parenchyma Concentration, individual / Unbound Plasma Concentration, individual / B:P ratio (brain:plasma), individual / L:P ratio, individual / Unbound B:P ratio (Kp,uu), individual / concentration / Kp at 0.5 h / concentration at 0.5 h / Kp uu at 0.5 h / Kp at 4 h / concentration at 4 h / Kp uu at 4 h / concentration at 24 h: 10 mg/kg; for Kp at 0.5 h / concentration at 0.5 h / Kp uu at 0.5 h / Kp at 4 h / concentration at 4 h / Kp uu at 4 h / concentration at 24 h: mouse, ip
# Description: For the tissue collection, at 0.5, 4 and 24 h following IP administration, mice were anaesthetised (using gaseous isoflurane). Immediately after the submandibular bleed, mice were killed via cervical dislocation and the whole brain and lung were removed from each carcase. All these tissues were blotted to remove excess blood, placed into pre-weighed polypropylene vials and weighed. Tissue samples were snap frozen in dry ice and subsequently stored frozen at −80 °C until analysis. A summary of the bioanalytical method is included in Table 5.
# Tissue: Pre-weighed tissue samples (brain and lung) were homogenised using a gentleMACS™ Octo Dissociator (Miltenyi Biotec, Macquarie Park, Australia) in buffer containing an EDTA/potassium fluoride solution (0.1 M/4 mg/mL) as a stabilisation cocktail to minimise the potential for ex vivo degradation (3 mL cocktail/g tissue). The tissue homogenate was briefly centrifuged (RCF=79×g) for 10 seconds to separate the foam layer before transferring an aliquot of the tissue homogenate (200 μL) to a fresh Eppendorf tube for sample extraction. Calibration standards were prepared by spiking blank brain and lung homogenate (200 μL) with the solution standards (10 μL) and the internal standard (10 μL). Study samples (for all tissue types) were similarly prepared, except that acetonitrile (10 μL) was added instead of solution standards to maintain the same volume. Protein precipitation was carried out by the addition of a 3-fold volume of acetonitrile, followed by vortex mixing and centrifugation (RCF=9391×g) for 3 min to recover the supernatant for analysis.
# The concentration of compound 22 in brain or lung parenchyma was calculated on the basis of the measured concentration in brain or lung homogenate, after correcting for the contribution of compound contained within the vascular space of brain or lung samples as follows:
# Ctissue=Ctissue homogentate−Ctissue vasculature where Ctissue vasculature=Cplasma×Vp • Ctissue=concentration of compound in brain or lung parenchyma (μM) • Ctissue homogenate=concentration of compound in brain or lung homogenate (μM) • Ctissue vasculature=concentration of compound in brain or lung vasculature (μM) • Cplasma=concentration of compound in plasma (μM)
# Vp=brain plasma volume (0.017 mL/g for male C57BL/6 mice; Nicolazzo et al. (2010), Clinical and Experimental Pharmacology and Physiology, 37: 647-649) or lung plasma volume (0.16 mL/g of tissue, Boswell et al. (2014), Molecular Pharmaceutics, 11: 1591-1598)
# Concentrations in brain or lung parenchyma were converted from units of ng/g to μM assuming a specific gravity of 1.
# For each mouse, the tissue (brain or lung)-to-plasma concentration ratio (based on total concentrations in each matrix) was calculated as: […]
# For brain uptake, the unbound brain-to-plasma partition coefficient (based on unbound concentrations in each matrix) was calculated as: […]
# [3] = 0.5 h, IP 10 mg/kg, individual mice
# [4] = 0.5 h, IP 10 mg/kg, individual mice, 30 min
# [5] = 4.0 h, IP 10 mg/kg, individual mice
# [6] = 4.0 h, IP 10 mg/kg, individual mice, 240 min
structure (smiles),measurement,setting,value
NC(=O)C1CCN(c2ncccc2CNCc2cccc3[nH]ccc23)CC1 [Compound 22],Prevention of NSP5-induced neuronal death,[1],prevented NSP5-induced neuronal death in a dose-dependent manner
same,"Unbound Brain Parenchyma Concentration, individual",[2]; [3],0.160 µM and 0.138 µM and 0.169 µM
same,"Unbound Plasma Concentration, individual",[2]; [3],1050 nM and 704 nM and 841 nM
same,"B:P ratio (brain:plasma), individual",[2]; [4],0.23
same,"L:P ratio, individual",[2]; [4],2.8 and 2.6
same,"Unbound B:P ratio (Kp,uu), individual",[2]; [4],0.20
same,concentration,"[2]; 0.5 h, IP 10 mg/kg, individual mice, 30 min, read-out: Total Brain Parenchyma Concentration, individual",291 nM
same,concentration,"[2]; 0.5 h, IP 10 mg/kg, individual mice, 30 min, read-out: Total Lung Parenchyma Concentration, individual",3560 nM and 4000 nM
same,concentration,"[2]; 0.5 h, IP 10 mg/kg, individual mice, 30 min, read-out: Total Plasma Concentration, individual",1290 nM and 1540 nM
same,"Unbound Brain Parenchyma Concentration, mean","[2]; 0.5 h, IP 10 mg/kg, mean",0.155 µM
same,"Unbound Plasma Concentration, mean","[2]; 0.5 h, IP 10 mg/kg, mean",866 nM
same,"Unbound Brain Parenchyma Concentration, individual",[2]; [5],0.0292 µM and 0.0285 µM
same,"Unbound Plasma Concentration, individual",[2]; [5],4.3 nM and 3.3 nM
same,"B:P ratio (brain:plasma), individual",[2]; [6],9.91
same,"L:P ratio, individual",[2]; [6],68.6
same,"Unbound B:P ratio (Kp,uu), individual",[2]; [6],8.59
same,concentration,"[2]; 4.0 h, IP 10 mg/kg, individual mice, 240 min, read-out: Total Brain Parenchyma Concentration, individual",60.1 nM
same,concentration,"[2]; 4.0 h, IP 10 mg/kg, individual mice, 240 min, read-out: Total Lung Parenchyma Concentration, individual",416 nM
same,concentration,"[2]; 4.0 h, IP 10 mg/kg, individual mice, 240 min, read-out: Total Plasma Concentration, individual",6.1 nM
same,"Unbound Brain Parenchyma Concentration, mean","[2]; 4.0 h, IP 10 mg/kg, mean",0.0288 µM
same,"Unbound Plasma Concentration, mean","[2]; 4.0 h, IP 10 mg/kg, mean",3.8 nM
same,"Unbound Brain Parenchyma Concentration, individual","[2]; 24 h, IP 10 mg/kg, individual mice",0.0060 µM and 0.0005 µM
same,concentration,"[2]; 24 h, IP 10 mg/kg, individual mice, 1440 min, read-out: Total Lung Parenchyma Concentration, individual",2.5 nM and 1.6 nM and 0.7 nM
same,Apparent tissue-to-plasma ratio (B:P or L:P) at 4 h versus 0.5 h,[2]; IP 10 mg/kg,substantially higher than that at 0.5 h
same,Duration of measurable concentrations in brain,[2]; IP 10 mg/kg,≤ 4 h
same,Duration of measurable concentrations in lung,[2]; IP 10 mg/kg,up to 24 hours
same,"Unbound Brain Parenchyma Concentration, mean","[2]; IP 10 mg/kg, mean",0.0033 µM
same,Kp at 0.5 h,"[2]; brain, 0.5 h, individual mice, read-out: B:P ratio (brain:plasma), individual",0.18
same,concentration at 0.5 h,"[2]; brain, 0.5 h, individual mice, read-out: Total Brain Parenchyma Concentration, individual",337 nM
same,Kp uu at 0.5 h,"[2]; brain, 0.5 h, individual mice, read-out: Unbound B:P ratio (Kp,uu), individual",0.15
same,Kp at 0.5 h,"[2]; brain, 0.5 h, mean, read-out: B:P ratio (brain:plasma), mean",0.21
same,concentration at 0.5 h,"[2]; brain, 0.5 h, mean, read-out: Total Brain Parenchyma Concentration, mean",328 nM
same,Kp uu at 0.5 h,"[2]; brain, 0.5 h, mean, read-out: Unbound B:P ratio (Kp,uu), mean",0.18
same,Kp at 4 h,"[2]; brain, 4.0 h, individual mice, read-out: B:P ratio (brain:plasma), individual",7.9
same,concentration at 4 h,"[2]; brain, 4.0 h, individual mice, read-out: Total Brain Parenchyma Concentration, individual",61.6 nM
same,Kp uu at 4 h,"[2]; brain, 4.0 h, individual mice, read-out: Unbound B:P ratio (Kp,uu), individual",6.84
same,concentration at 4 h,"[2]; brain, 4.0 h, mean, mouse 16 excluded, read-out: Total Brain Parenchyma Concentration, mean",60.9 nM
same,Kp at 4 h,"[2]; brain, 4.0 h, mean, read-out: B:P ratio (brain:plasma), mean",8.9
same,Kp uu at 4 h,"[2]; brain, 4.0 h, mean, read-out: Unbound B:P ratio (Kp,uu), mean",7.72
same,concentration at 24 h,"[2]; brain, 24 h, mean, read-out: Total Brain Parenchyma Concentration, mean",6.9 nM
same,Kp at 0.5 h,"[2]; lung, 0.5 h, individual mice, read-out: L:P ratio, individual",2
same,concentration at 0.5 h,"[2]; lung, 0.5 h, individual mice, read-out: Total Lung Parenchyma Concentration, individual",3830 nM
same,Kp at 0.5 h,"[2]; lung, 0.5 h, mean, read-out: L:P ratio, mean",2.5
same,concentration at 0.5 h,"[2]; lung, 0.5 h, mean, read-out: Total Lung Parenchyma Concentration, mean",3800 nM
same,Kp at 4 h,"[2]; lung, 4.0 h, individual mice, read-out: L:P ratio, individual",45.7
same,concentration at 4 h,"[2]; lung, 4.0 h, individual mice, read-out: Total Lung Parenchyma Concentration, individual",356 nM
same,concentration at 4 h,"[2]; lung, 4.0 h, mean, mouse 16 excluded, read-out: Total Lung Parenchyma Concentration, mean",386 nM
same,Kp at 4 h,"[2]; lung, 4.0 h, mean, read-out: L:P ratio, mean",57.1
same,concentration at 24 h,"[2]; lung, 24 h, mean, read-out: Total Lung Parenchyma Concentration, mean",2.1 nM
same,concentration at 0.5 h,"[2]; plasma, 0.5 h, individual mice, read-out: Total Plasma Concentration, individual",1920 nM
same,concentration at 0.5 h,"[2]; plasma, 0.5 h, mean, read-out: Total Plasma Concentration, mean",1580 nM
same,concentration at 4 h,"[2]; plasma, 4.0 h, individual mice, read-out: Total Plasma Concentration, individual",7.8 nM
same,concentration at 4 h,"[2]; plasma, 4.0 h, mean, mouse 16 excluded, read-out: Total Plasma Concentration, mean",6.9 nM
